Results taken from the supplement of paper PMC11451515.

System: P12-Ichikawa
Experiment: cell viability relative to DMSO control; higher = less cytotoxic
Details: 48 h
Method in brief: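 NOMO1 or SEM (500 cells/well) or P12-Ichikawa (1000 cells/well) leukemia cells were adapted for at least four passages in each medium. They were seeded in 1536-well plates (5 μl) and pin-dosed with library compounds in DMSO over an 11-point threefold series, 47 μM to 0.79 nM. CellTiter-Glo One luminescence was read after 48 h at 37°C. Viability is the per-plate percentage relative to DMSO wells, with cell-free wells as background.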

[1] = HPLM + 10% dialyzed FBS, 0.000781 µM
[2] = HPLM + 10% dialyzed FBS, 0.00234 µM
[3] = HPLM + 10% dialyzed FBS, 0.00702 µM
[4] = HPLM + 10% dialyzed FBS, 0.0211 µM
[5] = HPLM + 10% dialyzed FBS, 0.0632 µM
[6] = HPLM + 10% dialyzed FBS, 0.19 µM
[7] = HPLM + 10% dialyzed FBS, 0.569 µM
[8] = HPLM + 10% dialyzed FBS, 1.71 µM
[9] = HPLM + 10% dialyzed FBS, 5.12 µM
[10] = HPLM + 10% dialyzed FBS, 15.4 µM
[11] = HPLM + 10% dialyzed FBS, 46.1 µM
[12] = RPMI 5 mM glucose + 10% FBS, 0.000781 µM
[13] = RPMI 5 mM glucose + 10% FBS, 0.00234 µM
[14] = RPMI 5 mM glucose + 10% FBS, 0.00702 µM
[15] = RPMI 5 mM glucose + 10% FBS, 0.0211 µM
[16] = RPMI 5 mM glucose + 10% FBS, 0.0632 µM
[17] = RPMI 5 mM glucose + 10% FBS, 0.19 µM
[18] = RPMI 5 mM glucose + 10% FBS, 0.569 µM
[19] = RPMI 5 mM glucose + 10% FBS, 1.71 µM
[20] = RPMI 5 mM glucose + 10% FBS, 5.12 µM
[21] = RPMI 5 mM glucose + 10% FBS, 15.4 µM
[22] = RPMI 5 mM glucose + 10% FBS, 46.1 µM
[23] = RPMI 5 mM glucose + 10% dialyzed FBS, 0.000781 µM
[24] = RPMI 5 mM glucose + 10% dialyzed FBS, 0.00234 µM
[25] = RPMI 5 mM glucose + 10% dialyzed FBS, 0.00702 µM
[26] = RPMI 5 mM glucose + 10% dialyzed FBS, 0.0211 µM
[27] = RPMI 5 mM glucose + 10% dialyzed FBS, 0.0632 µM
[28] = RPMI 5 mM glucose + 10% dialyzed FBS, 0.19 µM
[29] = RPMI 5 mM glucose + 10% dialyzed FBS, 0.569 µM
[30] = RPMI 5 mM glucose + 10% dialyzed FBS, 1.71 µM
[31] = RPMI 5 mM glucose + 10% dialyzed FBS, 5.12 µM
[32] = RPMI 5 mM glucose + 10% dialyzed FBS, 15.4 µM
[33] = RPMI 5 mM glucose + 10% dialyzed FBS, 46.1 µM

SMILES | cell viability [1] | cell viability [2] | cell viability [3] | cell viability [4] | cell viability [5] | cell viability [6] | cell viability [7] | cell viability [8] | cell viability [9] | cell viability [10] | cell viability [11] | cell viability [12] | cell viability [13] | cell viability [14] | cell viability [15] | cell viability [16] | cell viability [17] | cell viability [18] | cell viability [19] | cell viability [20] | cell viability [21] | cell viability [22] | cell viability [23] | cell viability [24] | cell viability [25] | cell viability [26] | cell viability [27] | cell viability [28] | cell viability [29] | cell viability [30] | cell viability [31] | cell viability [32] | cell viability [33]
O=[S+]([O-])(CCSSCC[S+](=O)([O-])[O][Na])[O][Na] | 105% | 110% | 114% | 124% | 121% | 124% | 129% | 120% | 126% | 123% | 129% | 97.4% | 111% | 107% | 111% | 121% | 116% | 133% | 132% | 124% | 119% | 118% | 108% | 133% | 119% | 127% | 134% | 127% | 134% | 126% | 130% | 139% | 133%
C[C@H]1[C@H](O)O[C@@H]2O[C@@]3(C)CC[C@H]4[C@H](C)CC[C@@H]1[C@@]24OO3 | 91.4% | 95% | 99.8% | 98.6% | 91.4% | 97.9% | 101% | 87.6% | 54.7% | 29.4% | 22.5% | 90.1% | 92.9% | 83.4% | 94% | 89.9% | 91.2% | 87.9% | 70.4% | 33.9% | 16.8% | 14.6% | 82.7% | 90.6% | 87.1% | 87.7% | 87.2% | 87% | 84% | 61.6% | 36.5% | 26.2% | 24.3%
CC[C@H](NC(C)C)[C@H](O)c1ccc(O)c2[nH]c(=O)ccc12 | 108% | 111% | 102% | 106% | 99% | 102% | 101% | 105% | 102% | 92.1% | 97.8% | 102% | 106% | 104% | 101% | 96.9% | 107% | 108% | 94.3% | 95.2% | 94.1% | 92.6% | 91.4% | 98.2% | 97.6% | 95% | 100% | 97.1% | 98.2% | 89.9% | 93.5% | 95.1% | 93.8%
CCCCCCCCOc1ccccc1C(=O)Nc1ccc(C(=O)OCC[N+](C)(CC)CC)cc1 | 93.6% | 94.9% | 98.2% | 95.8% | 97.7% | 98.3% | 89.1% | 91.4% | 85.6% | 84.2% | 71.8% | 91.6% | 102% | 89.9% | 107% | 104% | 104% | 93.4% | 91.3% | 85.2% | 87.7% | 49% | 89.3% | 83.5% | 88.2% | 90.3% | 95% | 86.2% | 91% | 90.3% | 78.6% | 83.4% | 46.4%
COc1ccccc1OCCNCC(O)COc1cccc2[nH]c3ccccc3c12 (configuration not stated) | 121% | 124% | 124% | 118% | 119% | 117% | 122% | 119% | 109% | 113% | 100% | – | – | – | – | – | – | – | – | – | – | – | 119% | 115% | 119% | 119% | 122% | 122% | 115% | 124% | 112% | 112% | 99.6%
COC1=CC(=CC=C1)C2=CC=C(NC(=O)/C3=C(/CCC3)C(O)=O)C(=C2)F | 111% | 113% | 116% | 110% | 110% | 113% | 113% | 106% | 100% | 80.1% | 57.6% | 116% | 116% | 118% | 113% | 109% | 111% | 105% | 105% | 96.6% | 79.6% | 51.7% | 109% | 120% | 114% | 105% | 110% | 110% | 113% | 106% | 92.2% | 69.6% | 37.4%
CN1CCN(Cc2ccc(NC(=O)Nc3ccc(Oc4cc(NC(=O)C5CC5)ncn4)cc3)cc2C(F)(F)F)CC1 | 100% | 108% | 103% | 113% | 114% | 113% | 46.7% | 9.49% | 10.2% | 8.59% | 0.0522% | 105% | 110% | 117% | 121% | 122% | 132% | 44.7% | 9.59% | 8.79% | 6.05% | 0.799% | 92.4% | 113% | 111% | 121% | 122% | 123% | 35.4% | 12.8% | 11.6% | 11.8% | 0.55%
OC(CCN1CCCCC1)(C2CC\3CC2\C=C3)C4=CC=CC=C4 (configuration not stated) | 118% | 128% | 123% | 98.1% | 131% | 122% | 134% | 135% | 126% | 123% | 126% | – | – | – | – | – | – | – | – | – | – | – | 118% | 122% | 134% | 91.4% | 133% | 127% | 123% | 134% | 127% | 126% | 130%
